The assay deals with Tyrosine-protein kinase JAK2 (Homo sapiens, UniProt O60674).

We go through 20 compounds from ChEMBL document CHEMBL1154364, “2-Benzimidazolyl-9-(chroman-4-yl)-purinone derivatives as JAK3 inhibitors” (Bioorg Med Chem Lett, 2009).

Broadly, the IC50 is the concentration that inhibits the measured activity by half. A low value points to higher potency.

Chain of Tyrosine-protein kinase JAK2 (O60674 whole entry): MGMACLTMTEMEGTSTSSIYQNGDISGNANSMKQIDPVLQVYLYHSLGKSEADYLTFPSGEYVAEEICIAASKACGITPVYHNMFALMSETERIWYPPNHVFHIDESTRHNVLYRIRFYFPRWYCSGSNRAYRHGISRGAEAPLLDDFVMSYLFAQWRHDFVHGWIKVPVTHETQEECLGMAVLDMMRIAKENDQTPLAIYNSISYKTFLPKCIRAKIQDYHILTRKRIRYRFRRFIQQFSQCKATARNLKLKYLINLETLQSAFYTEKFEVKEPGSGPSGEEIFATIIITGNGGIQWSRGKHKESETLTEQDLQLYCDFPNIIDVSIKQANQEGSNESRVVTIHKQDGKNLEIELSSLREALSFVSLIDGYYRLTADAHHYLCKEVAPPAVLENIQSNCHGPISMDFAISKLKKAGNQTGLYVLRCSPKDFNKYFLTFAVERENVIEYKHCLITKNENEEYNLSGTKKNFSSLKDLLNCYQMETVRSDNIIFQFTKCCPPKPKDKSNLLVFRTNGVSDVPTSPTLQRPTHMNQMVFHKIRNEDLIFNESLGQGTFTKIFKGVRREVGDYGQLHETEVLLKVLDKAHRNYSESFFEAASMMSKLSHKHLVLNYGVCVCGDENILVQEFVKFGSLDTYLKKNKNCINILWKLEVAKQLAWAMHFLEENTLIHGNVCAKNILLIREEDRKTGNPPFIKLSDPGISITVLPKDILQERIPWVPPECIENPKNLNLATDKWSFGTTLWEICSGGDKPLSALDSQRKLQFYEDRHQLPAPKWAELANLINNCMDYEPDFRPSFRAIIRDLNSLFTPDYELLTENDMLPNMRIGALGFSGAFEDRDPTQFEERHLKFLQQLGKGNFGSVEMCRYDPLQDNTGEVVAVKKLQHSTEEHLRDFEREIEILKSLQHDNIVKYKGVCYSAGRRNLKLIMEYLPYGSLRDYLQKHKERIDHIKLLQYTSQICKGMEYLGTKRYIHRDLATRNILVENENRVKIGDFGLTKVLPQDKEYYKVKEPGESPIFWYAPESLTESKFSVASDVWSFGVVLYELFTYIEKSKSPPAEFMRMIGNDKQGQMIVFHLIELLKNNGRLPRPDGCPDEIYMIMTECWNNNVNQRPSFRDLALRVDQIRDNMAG
Description: Inhibition of human JAK2 (532-1132) by time resolved fluorescence assay

For `N#Cc1ccc2ncn(-c3ncc4[nH]c(=O)n(Cc5c(F)cccc5F)c4n3)c2c1`, the IC50 amounted to 0.028 µM. Compound `N#Cc1ccc2ncn(-c3ncc4[nH]c(=O)n(Cc5c(Cl)cccc5Cl)c4n3)c2c1` registered an IC50 of 1.55 µM. To `N#Cc1ccc2ncn(-c3ncc4[nH]c(=O)n([C@@H]5CCOc6c(F)cccc65)c4n3)c2c1` belongs 0.005 µM; to `O=c1[nH]c2cnc(-n3cnc4ccc(Cl)cc43)nc2n1C1CCOCC1`, 0.393 µM.

Take `N#Cc1ccc2ncn(-c3ncc4[nH]c(=O)n(C5CCOCC5)c4n3)c2c1`: 0.47 µM corresponded to half-maximal inhibition (IC50). To `N#Cc1ccc2ncn(-c3ncc4[nH]c(=O)n(Cc5cccc(F)c5F)c4n3)c2c1` belongs 0.27 µM; to `O=c1[nH]c2cnc(-n3cnc4ccc(F)cc43)nc2n1Cc1c(F)cccc1F`, 0.32 µM; to `O=c1[nH]c2cnc(-n3cnc4ccccc43)nc2n1[C@@H]1CCOc2c(F)cccc21`, 0.333 µM. To `O=c1[nH]c2cnc(-n3cnc4ccccc43)nc2n1[C@H]1CCOc2c(F)cccc21` belongs 7 µM.

As for `O=c1[nH]c2cnc(-n3cnc4ccc(Cl)cc43)nc2n1[C@@H]1CCOc2c(F)cccc21`, the IC50 turned out to be 0.056 µM. To `O=c1[nH]c2cnc(-n3cnc4ccc(F)cc43)nc2n1Cc1cccc(F)c1F` belongs 1 µM; to `O=c1[nH]c2cnc(-n3cnc4cc(C(F)(F)F)ccc43)nc2n1C1CCOCC1`, 1.8 µM; to `O=c1[nH]c2cnc(-n3cnc4ccc(C(F)(F)F)cc43)nc2n1C1CCOCC1`, 0.56 µM. Consider `O=c1[nH]c2cnc(-n3cnc4ccc(F)cc43)nc2n1C1CCOCC1`, for which inhibition was half-maximal at 3.4 µM (IC50).

Compound `O=c1[nH]c2cnc(-n3cnc4ccccc43)nc2n1C1CCOc2ccc(Cl)cc21` (racemic) came in with a concentration for half-maximal inhibition (IC50) of 0.5 µM. In turn, `O=c1[nH]c2cnc(-n3cnc4ccccc43)nc2n1C1CCOc2ccccc21` (racemic) came in with an IC50 of 0.17 µM. Turning to `O=c1[nH]c2cnc(-n3cnc4ccccc43)nc2n1C1CCOc2cccc(F)c21` (racemic), the IC50 is 0.097 µM.

`O=c1[nH]c2cnc(-n3cnc4ccccc43)nc2n1C1CCOc2cc(F)ccc21` (racemic) displayed a half-maximal inhibitory concentration (IC50) of 0.095 µM.

For the compound `O=c1[nH]c2cnc(-n3cnc4ccccc43)nc2n1C1CCOc2c(F)cccc21` (racemic), the IC50 was determined as 0.285 µM. The compound `O=c1[nH]c2cnc(-n3cnc4ccccc43)nc2n1C1CCOc2ccc(F)cc21` (racemic) showed an IC50 of 0.083 µM.
